Test results reported in US12077503B2, “Substituted cyclic amides and their use as herbicides” (FMC CORPORATION, priority 2015, dated 2024).

Legend:
Assay type in all cases: in vivo
[1] = system: rice (Oryra sativa); experiment: Test B flooded paddy test; conditions: Oryza sativa, 250 g ai/ha, Flood; 0 to 100 scale where 0 is no effect and 100 is complete control; read-out: Rice plant response rating
Method in brief: (§1)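 Plants at 2-leaf stage flooded to 3 cm above soil, with compounds applied directly to paddy water and that depth maintained. Plants kept in greenhouse 13–15 d. Visual rating versus controls on a 0 (no effect) to 100 (complete control) scale.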

[2] = system: ducksalad (Heteranthera limosa); experiment: Test B flooded paddy test; conditions: Heteranthera limosa, 250 g ai/ha, Flood; 0 to 100 scale where 0 is no effect and 100 is complete control; read-out: Ducksalad plant response rating
Method in brief: as §1

[3] = system: barnyardgrass (Echinochloa crus-galli); experiment: Test B flooded paddy test; conditions: Echinochloa crus-galli, 250 g ai/ha, Flood; 0 to 100 scale where 0 is no effect and 100 is complete control; read-out: Barnyardgrass plant response rating
Method in brief: as §1

[4] = system: sedge, umbrella (small-flower umbrella sedge, Cyperus difformis); experiment: Test B flooded paddy test; conditions: Cyperus difformis, 250 g ai/ha, Flood; 0 to 100 scale where 0 is no effect and 100 is complete control; read-out: Sedge, Umbrella plant response rating
Method in brief: as §1

[5] = system: Galium (catchweed bedstraw, Galium aparine); experiment: Test A postemergence; conditions: Galium, post-emergence, 240 h, Postemergence, read-out: Galium plant response rating (0 to 100 scale); for pest or weed control at 125 g/ha: 125 g ai/ha, visual rating about 10 d after treatment; for pest or weed control at 31 g/ha: 31 g ai/ha, 0 is no effect, 100 is complete control
Method in brief: (§2)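 Seeds sprayed preemergence with a directed soil spray, or plants at 2 to 10 cm height and one- to two-leaf stage sprayed postemergence, with test chemicals in a non-phytotoxic solvent mixture containing surfactant, in loam soil–sand blend. Injury rated visually against untreated controls after about 10 d in greenhouse, 0 (no effect) to 100 (complete control).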

[6] = system: wheat (Triticum aestivum); experiment: Test A postemergence; conditions: Triticum aestivum, post-emergence, 240 h, Postemergence, read-out: Wheat plant response rating (0 to 100 scale); for plant injury at 125 g/ha: 125 g ai/ha, visual rating about 10 d after treatment; for plant injury at 31 g/ha: 31 g ai/ha, 0 is no effect, 100 is complete control
Method in brief: as §2

[7] = system: ragweed (common ragweed, Ambrosia elatior); experiment: Test A postemergence; conditions: Ambrosia artemisiifolia, post-emergence, 240 h, Postemergence, read-out: Ragweed plant response rating (0 to 100 scale); for pest or weed control at 125 g/ha: 125 g ai/ha, visual rating about 10 d after treatment; for pest or weed control at 31 g/ha: 31 g ai/ha, 0 is no effect, 100 is complete control
Method in brief: as §2

[8] = system: barnyardgrass (Echinochloa crus-galli); experiment: Test A postemergence; conditions: Echinochloa crus-galli, post-emergence, 240 h, Postemergence; for pest or weed control at 125 g/ha: 125 g ai/ha, visual rating about 10 d after treatment, read-out: Barnyardgrass plant response rating (0 to 100 scale, 0 no effect, 100 complete control); for pest or weed control at 31 g/ha: 31 g ai/ha, 0 is no effect, 100 is complete control, read-out: Barnyardgrass plant response rating (0 to 100 scale)
Method in brief: as §2

[9] = system: corn (Zea mays); experiment: Test A postemergence; conditions: Zea mays, post-emergence, 240 h, Postemergence, read-out: Corn plant response rating (0 to 100 scale); for plant injury at 125 g/ha: 125 g ai/ha, visual rating about 10 d after treatment; for plant injury at 31 g/ha: 31 g ai/ha, 0 is no effect, 100 is complete control
Method in brief: as §2

[10] = system: giant foxtail (Setaria faberii); experiment: Test A postemergence; conditions: Setaria faberi, post-emergence, 240 h, Postemergence, read-out: Foxtail, Giant plant response rating (0 to 100 scale); for pest or weed control at 125 g/ha: 125 g ai/ha, visual rating about 10 d after treatment; for pest or weed control at 31 g/ha: 31 g ai/ha, 0 is no effect, 100 is complete control
Method in brief: as §2

[11] = system: blackgrass (Alopecurus myosuroides); experiment: Test A postemergence; conditions: Alopecurus myosuroides, post-emergence, 240 h, Postemergence, read-out: Blackgrass plant response rating (0 to 100 scale); for pest or weed control at 125 g/ha: 125 g ai/ha, visual rating about 10 d after treatment; for pest or weed control at 31 g/ha: 31 g ai/ha, 0 is no effect, 100 is complete control
Method in brief: as §2

[12] = system: Kochia (Kochia scoparia); experiment: Test A postemergence; conditions: Bassia scoparia, post-emergence, 240 h, Postemergence, read-out: Kochia plant response rating (0 to 100 scale); for pest or weed control at 125 g/ha: 125 g ai/ha, visual rating about 10 d after treatment; for pest or weed control at 31 g/ha: 31 g ai/ha, 0 is no effect, 100 is complete control
Method in brief: as §2

[13] = system: ryegrass, Italian (Italian ryegrass, Lolium multiflorum); experiment: Test A postemergence; conditions: Lolium multiflorum, post-emergence, 240 h, Postemergence, read-out: Ryegrass, Italian plant response rating (0 to 100 scale); for pest or weed control at 125 g/ha: 125 g ai/ha, visual rating about 10 d after treatment; for pest or weed control at 31 g/ha: 31 g ai/ha, 0 is no effect, 100 is complete control
Method in brief: as §2

[14] = system: pigweed (Amaranthus retroflexus); experiment: Test A postemergence; conditions: Amaranthus retroflexus, post-emergence, 240 h, Postemergence, read-out: Pigweed plant response rating (0 to 100 scale); for pest or weed control at 125 g/ha: 125 g ai/ha, visual rating about 10 d after treatment; for pest or weed control at 31 g/ha: 31 g ai/ha, 0 is no effect, 100 is complete control
Method in brief: as §2

[15] = system: ragweed (common ragweed, Ambrosia elatior); experiment: Test A preemergence; conditions: Ambrosia artemisiifolia, pre-emergence, 240 h, 0 to 100 scale where 0 is no effect and 100 is complete control, read-out: Ragweed plant response rating; for pest or weed control at 31 g/ha: 31 g ai/ha, Preemergence; for pest or weed control at 125 g/ha: 125 g ai/ha, preemergence, visual injury rating, approximately 10 d
Method in brief: as §2

[16] = system: barnyardgrass (Echinochloa crus-galli); experiment: Test A preemergence; conditions: Echinochloa crus-galli, pre-emergence, 240 h, 0 to 100 scale where 0 is no effect and 100 is complete control, read-out: Barnyardgrass plant response rating; for pest or weed control at 31 g/ha: 31 g ai/ha, Preemergence; for pest or weed control at 125 g/ha: 125 g ai/ha, preemergence, visual injury rating, approximately 10 d
Method in brief: as §2

[17] = system: giant foxtail (Setaria faberii); experiment: Test A preemergence; conditions: Setaria faberi, pre-emergence, 240 h, 0 to 100 scale where 0 is no effect and 100 is complete control, read-out: Foxtail, Giant plant response rating; for pest or weed control at 31 g/ha: 31 g ai/ha, Preemergence; for pest or weed control at 125 g/ha: 125 g ai/ha, preemergence, visual injury rating, approximately 10 d
Method in brief: as §2

[18] = system: Kochia (Kochia scoparia); experiment: Test A preemergence; conditions: Bassia scoparia, pre-emergence, 240 h, 0 to 100 scale where 0 is no effect and 100 is complete control, read-out: Kochia plant response rating; for pest or weed control at 31 g/ha: 31 g ai/ha, Preemergence; for pest or weed control at 125 g/ha: 125 g ai/ha, preemergence, visual injury rating, approximately 10 d
Method in brief: as §2

[19] = system: ryegrass, Italian (Italian ryegrass, Lolium multiflorum); experiment: Test A preemergence; conditions: Lolium multiflorum, pre-emergence, 240 h, 0 to 100 scale where 0 is no effect and 100 is complete control, read-out: Ryegrass, Italian plant response rating; for pest or weed control at 31 g/ha: 31 g ai/ha, Preemergence; for pest or weed control at 125 g/ha: 125 g ai/ha, preemergence, visual injury rating, approximately 10 d
Method in brief: as §2

[20] = system: pigweed (Amaranthus retroflexus); experiment: Test A preemergence; conditions: Amaranthus retroflexus, pre-emergence, 240 h, 0 to 100 scale where 0 is no effect and 100 is complete control, read-out: Pigweed plant response rating; for pest or weed control at 31 g/ha: 31 g ai/ha, Preemergence; for pest or weed control at 125 g/ha: 125 g ai/ha, preemergence, visual injury rating, approximately 10 d

Row | SMILES | pest or weed control at 250 g/ha [1] [%] | pest or weed control at 250 g/ha [2] [%] | pest or weed control at 250 g/ha [3] [%] | pest or weed control at 250 g/ha [4] [%] | pest or weed control at 125 g/ha [5] [%] | pest or weed control at 31 g/ha [5] [%] | plant injury at 125 g/ha [6] [%] | plant injury at 31 g/ha [6] [%] | pest or weed control at 125 g/ha [7] [%] | pest or weed control at 31 g/ha [7] [%] | pest or weed control at 125 g/ha [8] [%] | pest or weed control at 31 g/ha [8] [%] | plant injury at 125 g/ha [9] [%] | plant injury at 31 g/ha [9] [%] | pest or weed control at 125 g/ha [10] [%] | pest or weed control at 31 g/ha [10] [%] | pest or weed control at 125 g/ha [11] [%] | pest or weed control at 31 g/ha [11] [%] | pest or weed control at 125 g/ha [12] [%] | pest or weed control at 31 g/ha [12] [%] | further results
1 | O=C(Nc1cccc(F)c1F)C1C(=O)N(CC(F)F)CC1c1cccc(C(F)(F)F)c1 (stereo not drawn) [Compound 1294] | 0 | 0 | 0 | 0 | 0 | 0 | 0 | 0 | 0 | 0 | 20 | 0 | 0 | 0 | 20 | 0 | 0 | 0 | 0 | 0 | pest or weed control at 125 g/ha [13]: 0%; pest or weed control at 31 g/ha [13]: 0%; pest or weed control at 125 g/ha [14]: 0%; pest or weed control at 31 g/ha [14]: 0%; pest or weed control at 31 g/ha [15]: 0%; pest or weed control at 125 g/ha [15]: 0%; pest or weed control at 31 g/ha [16]: 0%; pest or weed control at 125 g/ha [16]: 50%; pest or weed control at 31 g/ha [17]: 0%; pest or weed control at 125 g/ha [17]: 30%; pest or weed control at 31 g/ha [18]: 0%; pest or weed control at 125 g/ha [18]: 0%; pest or weed control at 31 g/ha [19]: 0%; pest or weed control at 125 g/ha [19]: 0%; pest or weed control at 31 g/ha [20]: 0%; pest or weed control at 125 g/ha [20]: 0%
2 | O=C(Nc1ccccc1F)[C@H]1C(=O)N(CC(F)F)C[C@@H]1c1cccc(C(F)(F)F)c1 [Compound 1295] | 0 | 0 | 0 | 0 | 0 | 0 | 0 | 0 | 0 | 0 | 0 | 0 | 0 | 0 | 0 | 0 | 0 | 0 | 0 | 0 | pest or weed control at 125 g/ha [13]: 0%; pest or weed control at 31 g/ha [13]: 0%; pest or weed control at 125 g/ha [14]: 0%; pest or weed control at 31 g/ha [14]: 0%; pest or weed control at 31 g/ha [15]: 0%; pest or weed control at 125 g/ha [15]: 0%; pest or weed control at 31 g/ha [16]: 0%; pest or weed control at 125 g/ha [16]: 0%; pest or weed control at 31 g/ha [17]: 0%; pest or weed control at 125 g/ha [17]: 40%; pest or weed control at 31 g/ha [18]: 0%; pest or weed control at 125 g/ha [18]: 0%; pest or weed control at 31 g/ha [19]: 0%; pest or weed control at 125 g/ha [19]: 0%; pest or weed control at 31 g/ha [20]: 0%; pest or weed control at 125 g/ha [20]: 0%
